Source: patent US11014913B2, “Pyridazinones as PARP7 inhibitors” (Ribon Therapeutics Inc., priority 2018, dated 2021)

Assays:
[1] = target: T1, PARP7 (Homo sapiens (Human), UniProt Q7Z3E1); test: Enzymatic assay for inhibition of PARP7 (TR-FRET displacement of Probe A from the TIPARP active site); type: binding
Experimental: 20 nL of a dose response curve of each test compound was spotted in black 384-well polystyrene proxiplates (Perkin Elmer) using a Mosquito (TTP Labtech). […] Reactions were incubated at 25° C. for an additional 30 min, then read on an Envision platereader equipped with a LANCE/DELFIA top mirror (Perkin Elmer) using excitation of 320 nm and emission of 615 nm and […] with a 90 μs delay. The ratio of the 665/615 nm emission were calculated for each well to determine the amount of complex of TIPARP and Probe A in each well. […] The Hill Coefficient is normally allowed to float but may also be fixed at 1 in a 3-parameter fit. Y is the % inhibition and X is the compound concentration.

[2] = test system: CT26 cells; test: Tumor growth in murine syngeneic model CT26 (subcutaneous dosing); type: in vivo; details: CT26, BALB/c mice
Excerpt: (§1) Example G: Inhibition of Tumor Growth by Treatment with PARP7 Inhibitors
For the CT26 study BALB/c mice were inoculated subcutaneously at the right flank with CT26 cells for tumor development. Four days after tumor inoculation, 36 mice with tumor size ranging from 40-55 mm^3 (average tumor size 47 mm^3) were selected and assigned into 3 groups using stratified randomization with 12 mice in each group based upon their tumor volumes. The treatments were started from the next day post randomization (defined randomization day as day 0) and were treated with vehicle (0.5% methylcellulose +0.2% Tween 80), Compound 98 (500 mg/kg S.C. QD*21 days), Compound 93A (100 mg/kg S.C. BID*21 days) respectively. The tumor sizes were measured three times per week during the treatment. The entire study was terminated on day 21.
(§2) Mean tumor volume and SEM for both studies are plotted. Statistical significance, calculated using two-tailed unpaired t-tests in which each treatment group was compared to vehicle control, is indicated by an asterisk. Statistics were performed on groups with less than 20% animal loss (D21 for CT26, D17 for 4T1).

[3] = test system: 4T1-luc2-1A4 cells; test: Tumor growth in murine syngeneic model 4T1 (orthotopic, mammary fat pad); type: in vivo; details: 4T1, BALB/c mice
Excerpt: as §1
For the 4T1 study female BALB/c mice were inoculated orthotopically in the mammary fat pad with 4T1-luc2-1A4 cells for tumor development. Eight days after tumor inoculation, 45 mice with tumor size ranging from 63-88 mm^3 (average tumor size 67 mm^3) were selected and assigned into 3 groups using stratified randomization with 15 mice in each group based upon their tumor volumes. The treatments were started from the next day post randomization (defined randomization day as D0) and were treated with vehicle (0.5% methylcellulose +0.2% Tween 80), Compound 98 (500 mg/kg S.C. QD*21 days), Compound 93A (100 mg/kg S.C. BID*21 days) respectively. The tumor sizes were measured three times per week during the treatment. The entire study was terminated on D20.
as §2

[4] = test system: NCI-H1373 cells; test: Tumor growth in human NCI-H1373 lung cancer xenograft (oral dosing); type: in vivo, SCID mice; details: 62.5 to 500 mg/kg once a day for 28 days
Excerpt: (§3) Example H: Inhibition of Tumor Growth by Oral Dosing with a PARP7 Inhibitor
(§4) The effect of Compound 561 on tumor growth was studied in a human NCI-H1373 lung cancer xenograft and a murine CT26 colon cancer syngeneic model.
For the NCI-H1373 study, SCID mice were inoculated subcutaneously in the right flank with NCI-H1373 cells for tumor development. After 5 days of tumor growth, mice with 89-148 mm^3 tumors were randomized into treatment groups with mean tumor volumes of 121 mm^3. The treatments were started from the next day post randomization (defined randomization day as day 0) and were treated with vehicle (50% Labrasol) or Compound 561 (62.5, 125, 250, and 500 mg/kg) once a day for 28 days by oral gavage. Tumor volumes were determined by manual calipers every 2-3 days. Mean tumor volume and SEM are plotted. QD: once a day; PO: per oral administration. Statistical significance is calculated using two-way ANOVA followed by Bonferroni post-tests in which the treatment groups were compared to vehicle control (**** P<0.0001).

[5] = test system: CT26 cells; test: Tumor growth in murine CT26 colon cancer syngeneic model (oral dosing); type: in vivo; details: CT26, BALB/c mice, BID 125-500 mg/kg or QD 500 mg/kg, 21 days
Excerpt: as §3, §4
For the CT26 study, BALB/c mice were inoculated subcutaneously in the right flank with CT26 cells for tumor development. After 5 days of cell inoculation, mice with 36-79 mm^3 tumors were randomized into treatment groups with mean tumor volumes of 54 mm^3. The treatments were started from the next day post randomization (defined randomization day as day 0) and were treated with vehicle (25 or 50% Labrasol) or Compound 561 BID (2 times a day every 12 hours) at doses ranging from 125-500 mg/kg or QD (once a day) at 500 mg/kg for 21 days by oral gavage or needle subcutaneously. Tumor volumes were determined by manual calipers every 2-3 days. Mean tumor volume and SEM are plotted. BID: twice a day; PO: per oral administration; QD: once a day; SC: per subcutaneous administration. The first two doses for vehicle and Compound 561 500 mg/kg in the QD groups were delivered by subcutaneous injection. […] Statistical significance is calculated using two-way ANOVA followed by Bonferroni post-tests in which the treatment groups were compared to vehicle control (**** P<0.0001).

[6] = target: T1, PARP7; test: PARP7 inhibition potency (Table A-1); type: biochemical; details: comparison of separated isomers; see Table A-1

T1 sequence (Q7Z3E1 whole entry): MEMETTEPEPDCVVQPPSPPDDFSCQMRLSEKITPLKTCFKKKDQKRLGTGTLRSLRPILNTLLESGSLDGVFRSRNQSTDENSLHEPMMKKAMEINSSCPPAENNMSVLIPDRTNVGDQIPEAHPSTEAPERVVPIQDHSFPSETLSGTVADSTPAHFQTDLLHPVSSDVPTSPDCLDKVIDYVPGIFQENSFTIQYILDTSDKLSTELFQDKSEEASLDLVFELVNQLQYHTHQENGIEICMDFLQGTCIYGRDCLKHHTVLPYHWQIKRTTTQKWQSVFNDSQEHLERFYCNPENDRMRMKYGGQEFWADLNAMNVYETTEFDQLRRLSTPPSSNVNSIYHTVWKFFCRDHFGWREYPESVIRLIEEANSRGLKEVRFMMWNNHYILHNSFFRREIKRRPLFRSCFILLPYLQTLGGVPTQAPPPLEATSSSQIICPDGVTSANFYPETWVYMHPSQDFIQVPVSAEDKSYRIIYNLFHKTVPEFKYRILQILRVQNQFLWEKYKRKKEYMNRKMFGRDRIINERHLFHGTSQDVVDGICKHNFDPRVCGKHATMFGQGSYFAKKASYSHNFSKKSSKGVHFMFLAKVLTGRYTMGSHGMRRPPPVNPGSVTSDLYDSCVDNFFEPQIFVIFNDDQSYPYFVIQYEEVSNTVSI

N#Cc1ccc(N2CCN(C(=O)CNCC[C@@H]3c4ccccc4CN3c3cn[nH]c(=O)c3C(F)(F)F)CC2)nc1 [Example 144B, 6-[4-[2-([2-[(1R)-2-[6-oxo-5-(trifluoromethyl)-1,6-dihydropyridazin-4-yl]-2,3-dihydro-1H-isoindol-1-yl]ethyl]amino)acetyl]piperazin-1-yl]pyridine-3-carbonitrile]
IC50 [1]: 100 to 1000 nM

N#Cc1ccc(N2CCN(C(=O)CCOC[C@@H]3c4ccccc4CN3c3cn[nH]c(=O)c3C(F)(F)F)CC2)nc1 [Example 93A, 6-[4-(3-[[(1S)-2-[6-oxo-5-(trifluoromethyl)-1,6-dihydropyridazin-4-yl]-2,3-dihydro-1H-isoindol-1-yl]methoxy]propanoyl)piperazin-1-yl]pyridine-3-carbonitrile]
tumor growth ([2]; 100 mg/kg S.C. BID*21 days): significantly reduce tumor growth
tumor growth ([3]; 100 mg/kg S.C. BID*21 days): significantly reduce tumor growth

5-[[(2R)-1-[3-[4-(5-chloropyrimidin-2-yl)piperazin-1-yl]-3-oxopropoxy]-3-methoxypropan-2-yl]oxy]-4-(trifluoromethyl)-2,3-dihydropyridazin-3-one [Example 560 Isomer D]
IC50 [1]: 100 to 1000 nM

5-[[(2S)-1-[3-[4-(5-chloropyrimidin-2-yl)piperazin-1-yl]-3-oxopropoxy]-3-methoxypropan-2-yl]oxy]-4-(trifluoromethyl)-2,3-dihydropyridazin-3-one [Example 560 Isomer C]
IC50 [1]: < 100 nM

C[C@@H](COCCC(=O)N1CCN(c2ncc(C(F)(F)F)cn2)CC1)Nc1cn[nH]c(=O)c1C(F)(F)F [Example 561, 5-[[(2S)-1-(3-oxo-3-[4-[5-(trifluoromethyl)pyrimidin-2-yl]piperazin-1-yl]propoxy)propan-2-yl]amino]-4-(trifluoromethyl)-2,3-dihydropyridazin-3-one]
tumor regression [4]: complete tumor regression at all dose levels
tumor growth [5]: significantly reduces tumor growth

5-[(2R)-2-[3-[4-(5-chloropyrimidin-2-yl)piperazin-1-yl]-3-oxopropoxy]-3-methoxypropoxy]-4-(trifluoromethyl)-2,3-dihydropyridazin-3-one [Example 560 Isomer B]
IC50 [1]: 100 to 1000 nM

N#Cc1ccc(N2CCN(C(=O)c3cccc(OC[C@@H]4c5ccccc5CN4c4cn[nH]c(=O)c4C(F)(F)F)c3)CC2)nc1 (single isomer, unassigned) [Example 18 Isomer B]
relative potency of the enantiomers [6]: more potent enantiomer

N#Cc1ccc(N2CCN(C(=O)CCOC[C@@H]3CCCN3c3cn[nH]c(=O)c3C(F)(F)F)CC2)nc1 [Example 98, 6-[4-(3-[[(2S)-1-[6-Oxo-5-(trifluoromethyl)-1,6-dihydropyridazin-4-yl]pyrrolidin-2-yl]methoxy]propanoyl)piperazin-1-yl]pyridine-3-carbonitrile]
tumor growth ([2]; 500 mg/kg S.C. QD*21 days): significantly reduce tumor growth
tumor growth ([3]; 500 mg/kg S.C. QD*21 days): significantly reduce tumor growth
